The values below come from patent US12226412B2, “Heteroaryl-ketone fused azadecalin glucocorticoid receptor modulators” (Corcept Therapeutics, Inc., priority 2012, dated 2025).

Experiment [1] has as its target T1, human recombinant GR (Homo sapiens, UniProt P04150).
T1 construct: purchased PanVera P2812
T1 sequence (P04150 1-777): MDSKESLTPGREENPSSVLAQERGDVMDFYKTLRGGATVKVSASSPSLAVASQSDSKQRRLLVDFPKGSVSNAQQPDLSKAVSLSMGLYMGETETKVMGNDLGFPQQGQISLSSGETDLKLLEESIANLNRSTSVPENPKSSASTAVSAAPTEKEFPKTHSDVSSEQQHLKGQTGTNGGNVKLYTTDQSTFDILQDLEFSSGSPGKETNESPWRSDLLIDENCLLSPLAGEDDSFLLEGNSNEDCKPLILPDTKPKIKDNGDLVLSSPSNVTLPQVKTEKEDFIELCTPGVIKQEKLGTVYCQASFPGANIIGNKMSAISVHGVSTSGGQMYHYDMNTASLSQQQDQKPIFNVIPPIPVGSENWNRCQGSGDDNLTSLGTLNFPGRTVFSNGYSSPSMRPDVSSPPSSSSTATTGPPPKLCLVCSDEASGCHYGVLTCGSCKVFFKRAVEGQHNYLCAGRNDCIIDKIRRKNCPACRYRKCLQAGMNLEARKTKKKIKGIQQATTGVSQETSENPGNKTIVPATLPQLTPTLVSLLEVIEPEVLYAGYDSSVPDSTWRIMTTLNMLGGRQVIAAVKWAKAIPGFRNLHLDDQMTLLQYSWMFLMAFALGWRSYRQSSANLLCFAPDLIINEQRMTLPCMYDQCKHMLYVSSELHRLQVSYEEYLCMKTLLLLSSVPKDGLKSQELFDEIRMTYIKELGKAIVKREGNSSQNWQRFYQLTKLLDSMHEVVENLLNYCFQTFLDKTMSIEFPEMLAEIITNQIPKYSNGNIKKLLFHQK
Kind of experiment: Human glucocorticoid receptor (GR) fluorescence polarisation (FP) binding assay. As for the experimental part:
Human Glucocorticoid Receptor (GR) Fluorescence Polarisation (FP) Binding Assay
The following is a description of a FP assay for measuring compound inhibition of labelled glucocorticoid binding to the human recombinant GR.
The binding affinity of test compounds was determined using a FP binding assay using human recombinant GR (PanVera P2812) and a fluorescent labelled glucocorticoid ligand (Fluorome GS Red) (PanVera P2894). The presence of inhibitors prevents the formation of a GS Red/GR complex resulting in a decrease in the measured polarisation value. The change in polarisation value in the presence of test compounds is used to calculate the binding affinity of the compound for GR.
This assay was performed in 384 well, black, round-bottom, polypropylene micro titre plates in a final volume of 20 μl. The assay contained 5 μl 1 nM GR (final concentration), 5 μl 0.5 nM Fluorome GS Red (final concentration) in the presence of 10 μl test compounds. Positive control wells (high polarisation) receive, 10 μl 2% (v: v) DMSO vehicle (1% (v/v) final concentration)+5 μl 1 nM GR and 5 μl 0.5 nM Fluorome GS Red. […] Assay blank background wells (used for normalisation) receive 15 μl 1× GS screening buffer+5 μl GR.
Compounds were prepared as solubilised solids at 10 mM in DMSO. On the day of assay, an 8 point half-log serial dilution (55 μl DMSO+25 μl compound solution) was prepared. A 1:50 dilution (1 μl compound solution+49 μl 1× GR screening buffer) was prepared for each compound. The compounds were prepared at 2× final assay concentration.
The plates were mixed and incubated for 4 hour at room temperature.
10× GR screening buffer (100 mM potassium phosphate pH 7.4, 200 mM Na2MoO4, 1 mM EDTA, 20% (v/v) DMSO). To prepare 1× GR screening buffer, combine 1 ml 10× GR screening buffer (PanVera P2814)+1 ml stabilising peptide (PanVera P2815)+7.95 ml 4° C. MQ water. Add 50 μl 1M DTT, vortex and place on ice until use.
On the technique in general: In fluorescence polarisation assays a small probe gives low polarisation when free and higher when bound to something large.

Experiment [2] deals with induction of TAT by dexamethasone in HepG2 cells. Kind of experiment: HepG2 tyrosine aminotransferase (TAT) assay. It is filed as cell-based, human. The method, then:
Example 21. HepG2 Tyrosine Aminotransferase (TAT) Assay
Glucocorticoid mediated activation of TAT occurs by transactivation of glucocorticoid response elements in the TAT promoter by glucocorticoid receptor agonist complex.
TAT activity was measured as outlined in the literature by A. Ali et al., J. Med. Chem., 2004, 47, 2441-2452.
HepG2 cells were cultured using MEME media supplemented with 10% (v/v) foetal bovine serum; 2 mM L-glutamine and 1% (v/v) NEAA at 37° C., 5%/95% (v/v) CO2/air. The HepG2 cells were counted and adjusted to yield a density of 0.125×10^6 cells/ml in RPMI 1640 without phenol red, 10% (v/v) charcoal stripped FBS, 2 mM L-glutamine and seeded at 25,000 cells/well in 200 μl into 96 well, sterile, tissue culture micro titre plates, and incubated at 37° C., 5% CO2 for 24 hours
Growth media was removed and replaced with assay media {RPMI 1640 without phenol red, 2 mM L-glutamine+10 μM forskolin}. […] Compounds were serially half log diluted in 100% (v/v) dimethylsupfoxide from a 10 mM stock.
HepG2 cells were then lysed with 30 μl of cell lysis buffer containing a protease inhibitor cocktail for 15 minutes at 4° C. 155 μl of substrate mixture was then added containing 5.4 mM Tyrosine sodium salt, 10.8 mM alpha ketoglutarate and 0.06 mM pyridoxal 5′ phosphate in 0.1M potassium phosphate buffer (pH 7.4). After 2 hours incubation at 37° C. the reaction was terminated by the addition of 15 μl of 10M aqueous potassium hydroxide solution, and the plates incubated for a further 30 minutes at 37° C. The TAT activity product was measured by absorbance at […].
[compound] and fitting the data to a 4 parameter logistic equation.

The mark [3] stands for this setting: human recombinant GR, fluorescence polarisation binding assay, read-out: GR binding.
[4] abbreviates: HepG2 cells, challenge of 100 nM dexamethasone, Ki from IC50 by Cheng and Prusoff equation.

Read-outs that look alike come from different tables or passages of the source.

In the case of `O=C(c1ccco1)[C@]12Cc3cnn(-c4ccc(F)cc4)c3C=C1CCN(S(=O)(=O)c1ccc(C(F)(F)F)cc1)C2` [Example 1G, (R)-(1-(4-fluorophenyl)-6-((4-(trifluoromethyl)phenyl)sulfonyl)-4,4a,5,6,7,8-hexahydro-1H-pyrazolo[3,4-g]isoquinolin-4a-yl)(furan-2-yl)methanone], the Ki was less than 0.5 nM in experiment [1] and 20 to 100 nM in experiment [2].
Turning to `O=C(c1cccs1)[C@]12Cc3cnn(-c4ccc(F)cc4)c3C=C1CCN(S(=O)(=O)c1ccc(C(F)(F)F)cc1)C2` [Example 1H, (R)-(1-(4-fluorophenyl)-6-((4-(trifluoromethyl)phenyl)sulfonyl)-4,4a,5,6,7,8-hexahydro-1H-pyrazolo[3,4-g]isoquinolin-4a-yl)(thiophen-2-yl)methanone], the Ki is less than 0.5 nM in experiment [1] and 20 to 100 nM in experiment [2].
With `Cc1cccc(S(=O)(=O)N2CCC3=Cc4c(cnn4-c4ccc(F)cc4)C[C@]3(C(=O)c3ncco3)C2)c1` [Example 1I, (R)-(1-(4-fluorophenyl)-6-(m-tolylsulfonyl)-4,4a,5,6,7,8-hexahydro-1H-pyrazolo[3,4-g]isoquinolin-4a-yl)(oxazol-2-yl)methanone], the Ki in experiment [1] (setting [3]) was less than 0.5 nM; in experiment [2] (setting [4]), 20 to 100 nM.
The like results for `Cc1cccc(S(=O)(=O)N2CCC3=Cc4c(cnn4-c4ccc(F)cc4)C[C@]3(C(=O)c3ncccn3)C2)c1` [Example 1J, (R)-(1-(4-fluorophenyl)-6-(m-tolylsulfonyl)-4,4a,5,6,7,8-hexahydro-1H-pyrazolo [3,4-g]isoquinolin-4a-yl)(pyrimidin-2-yl)methanone] were, in that order, less than 0.5 nM and 20 to 100 nM.
With `COc1ccnc(C(=O)[C@]23Cc4cnn(-c5ccc(F)cc5)c4C=C2CCN(S(=O)(=O)c2cc(F)cc(F)c2)C3)c1` [Example 1K, (R)-(6-((3,5-difluorophenyl)sulfonyl)-1-(4-fluorophenyl)-4,4a,5,6,7,8-hexahydro-1H-pyrazolo[3,4-g]isoquinolin-4a-yl)(4-methoxypyridin-2-yl)methanone], the values for the Ki in experiment [1] (setting [3]) and in experiment [2] (setting [4]) were less than 0.5 nM and less than 20 nM, respectively.
With `CCc1ccnc(C(=O)[C@]23Cc4cnn(-c5ccc(F)cc5)c4C=C2CCN(S(=O)(=O)c2cc(F)c(F)c(F)c2)C3)c1` [Example 1L, (R)-(4-ethylpyridin-2-yl)(1-(4-fluorophenyl)-6-((3,4,5-trifluorophenyl)sulfonyl)-4,4a,5,6,7,8-hexahydro-1H-pyrazolo[3,4-g]isoquinolin-4a-yl)methanone], the Ki in experiment [1] (setting [3]) is less than 0.5 nM; in experiment [2] (setting [4]) it was less than 20 nM.
On the same counts, the results for `COc1ccnc(C(=O)[C@]23Cc4cnn(-c5ccc(F)cc5)c4C=C2CCN(S(=O)(=O)c2cc(F)c(F)c(F)c2)C3)c1` [Example 1M, (R)-(1-(4-fluorophenyl)-6-((3,4,5-trifluorophenyl)sulfonyl)-4,4a,5,6,7,8-hexahydro-1H-pyrazolo[3,4-g]isoquinolin-4a-yl)(4-methoxypyridin-2-yl)methanone] are less than 0.5 nM and less than 20 nM.
`O=C(c1ccccn1)[C@]12Cc3cnn(-c4ccc(F)cc4)c3C=C1CCN(S(=O)(=O)c1ccc(F)cc1)C2` [Example 2, (R)-(1-(4-fluorophenyl)-6-((4-fluorophenyl)sulfonyl)-4,4a,5,6,7,8-hexahydro-1H-pyrazolo[3,4-g]isoquinolin-4a-yl)(pyridin-2-yl)methanone]: the Ki in experiment [1] was less than 0.5 nM; in experiment [2] it was less than 20 nM.
As to `O=C(c1nccs1)[C@]12Cc3cnn(-c4ccc(F)cc4)c3C=C1CCN(S(=O)(=O)Cc1cccc(F)c1)C2` [Example 2A, (R)-(6-((3-fluorobenzyl)sulfonyl)-1-(4-fluorophenyl)-4,4a,5,6,7,8-hexahydro-1H-pyrazolo[3,4-g]isoquinolin-4a-yl)(thiazol-2-yl) methanone], the Ki in experiment [1] (setting [3]) was less than 0.5 nM; in experiment [2] (setting [4]) it was no less than 100 nM.
Turning to `Cc1ccccc1S(=O)(=O)N1CCC2=Cc3c(cnn3-c3ccc(F)cc3)C[C@]2(C(=O)c2ccccn2)C1` [Example 2C, (R)-(1-(4-fluorophenyl)-6-(o-tolylsulfonyl)-4,4a,5,6,7,8-hexahydro-1H-pyrazolo [3,4-g]isoquinolin-4a-yl)(pyridin-2-yl)methanone], the Ki was less than 0.5 nM in experiment [1] and less than 20 nM in experiment [2] (setting [4]).
Regarding `CCc1ccc(S(=O)(=O)N2CCC3=Cc4c(cnn4-c4ccc(F)cc4)C[C@]3(C(=O)c3ccccn3)C2)cc1` [Example 2D, (R)-(6-((4-ethylphenyl)sulfonyl)-1-(4-fluorophenyl)-4,4a,5,6,7,8-hexahydro-1H-pyrazolo[3,4-g]isoquinolin-4a-yl)(pyridin-2-yl)methanone], the Ki is less than 0.5 nM in experiment [1] (setting [3]) and less than 20 nM in experiment [2] (setting [4]).
With `Cc1cccc(S(=O)(=O)N2CCC3=Cc4c(cnn4-c4ccc(F)cc4)C[C@]3(C(=O)c3ccccn3)C2)c1` [Example 2E, (R)-(1-(4-fluorophenyl)-6-(m-tolylsulfonyl)-4,4a,5,6,7,8-hexahydro-1H-pyrazolo[3,4-g]isoquinolin-4a-yl)(pyridin-2-yl)methanone], the Ki in experiment [1] is less than 0.5 nM; in experiment [2] it was less than 20 nM.
In the case of `O=C(c1ccccn1)[C@]12Cc3cnn(-c4ccc(F)cc4)c3C=C1CCN(S(=O)(=O)c1cccc(Cl)c1)C2` [Example 2F, (R)-(6-((3-chlorophenyl)sulfonyl)-1-(4-fluorophenyl)-4,4a,5,6,7,8-hexahydro-1H-pyrazolo[3,4-g]isoquinolin-4a-yl)(pyridin-2-yl)methanone], the figures for the Ki in experiment [1] and in experiment [2] were less than 0.5 nM and less than 20 nM, respectively.
With `COc1cccc(S(=O)(=O)N2CCC3=Cc4c(cnn4-c4ccc(F)cc4)C[C@]3(C(=O)c3ccccn3)C2)c1` [Example 2G, (R)-(1-(4-fluorophenyl)-6-((3-methoxyphenyl)sulfonyl)-4,4a,5,6,7,8-hexahydro-1H-pyrazolo[3,4-g]isoquinolin-4a-yl)(pyridin-2-yl)methanone], the Ki was less than 0.5 nM in experiment [1] and less than 20 nM in experiment [2].
Take `O=C(c1ccccn1)[C@]12Cc3cnn(-c4ccc(F)cc4)c3C=C1CCN(S(=O)(=O)c1ccc(Cl)c(F)c1)C2` [Example 2H, (R)-(6-((4-chloro-3-fluorophenyl)sulfonyl)-1-(4-fluorophenyl)-4,4a,5,6,7,8-hexahydro-1H-pyrazolo[3,4-g]isoquinolin-4a-yl)(pyridin-2-yl)methanone]: the Ki in experiment [1] (setting [3]) was less than 0.5 nM; in experiment [2] (setting [4]) it was less than 20 nM.
